# Tests used:
# histone deacetylase = assay: Histone deacetylase activity in HT-29 cells; assay type: cell-based; conditions: 10% cell free supernatant, 48 hours
# Procedure: Cell free supernatants of stationary phase bacterial cultures were isolated by centrifugation and filtering in a 0.22 uM filter. HT-29 cells were used 3 days post confluence and stepped down in 1 mL DTS 24 hours prior to commencement of the experiment. The HT-29 cells were challenged with 10% cell free supernatant diluted in DTS and was is left to incubate for 48 hours. […] proteins were then extracted using the Sigma Aldrich […] extraction kit and samples were snap frozen prior to HDAC activity measurement. HDAC activity was assessed fluorometrically using the Sigma Aldrich (UK) kit.
# [1] = system: ERK signalling (phosphorylated ERK1 and 2/total ERK); assay: ERK signalling in HT29 cell line (Western blot); assay type: cell-based; conditions: HT29 (V600E oncogenic mutation)
# Procedure: Following 24 h treatment with the appropriate drugs either in presence of 10% bacterial supernatant or absence (YCFA+), protein extracts were obtained by lysing cells in RIPA buffer (R0278; Sigma Aldrich) supplemented with protease inhibitors (cOmplete Protease Inhibitor Cocktail Tablets; Roche, Switzerland) and 1 mM/L sodium orthovanadate, 0.5 mM/L PMSF. Protein quantification was done by the BCA protein assay. Equal amounts of total protein (20 μg/lane) were then separated by SDS-PAGE on 4-15% gradient gel (BioRad) and transferred to polyvinylidene difluoride (PVDF) membranes (Thermo Fisher Scientific, Loughborough). […]
# Proteins of interest were detected with the appropriate HRP-conjugated secondary antibody (1:10,000, Thermo Fisher Scientific, Loughborough), developed with the ECL Western blotting Super Signal PicoPlus substrate (34577; Thermo Fisher Scientific, Loughborough), and visualised in Chemidoc XRS Imager (BioRad).
# The effects of the following treatments were assessed on the HT29 colorectal cancer cell line (V600E oncogenic mutation in BRAF): (1) MRx0029; (2) Vemurafenib (VEMU) in YFCA+ medium; (3) VEMU and MRx0029; (4) Azacytidine-C (Aza-c) in YCFA+ medium; (5) Aza-c and MRx0029; (6) VEMU, Aza-c and MRx0029.
# IL-8 = IL-8 secretion in MG U373 cells (ELISA); assay type: cell-based, human; conditions: 10% bacteria supernatant 24 h, independently of the presence of LPS (1 ug/mL)
# Procedure: MG U373 is a human glioblastoma astrocytoma derived from a malignant tumour and were purchased from Sigma-Aldrich (cat n. 08061901-1VL). MG U373 human glioblastoma astrocytoma cells were grown in MEM (Sigma Aldrich, cat n. M-2279) supplemented with 10% FBS, 1% Pen Strep, 4 mM L-Glut, 1×MEM Non-essential Amino Acid solution and 1× Sodium Piruvate.
# Once grown the MG U373 cells were plated on 24-well plate at 100,000 cells/well. The cells were treated with LPS (1 ug/mL) alone or with 10% of bacteria supernatant from MRx0029 for 24 h. LPS is a known stimulator of proinflammatory cytokines such as IL-8. Afterwards the cell free supernatants were collected, centrifuged at 10,000 g for 3 min at 4° C. IL-8 was measured using Human IL-8 ELISA Kit from Peprotech (cat n. #900-K18) according to manufacturer instruction.
# 451Lu melanoma cell line = assay: Clonogenic survival of 451Lu cell line; assay type: cell-based; conditions: relative to both negative controls (cell line only, and YCFA+ +DMSO)
# Procedure: Cells were trypsinized and 200 cells/well were seeded in 12-well plates. After 48 h cells were treated with the appropriate drugs in absence (YCFA+) or presence of 10% bacterial supernatant and were re-fed every three days. On day 21 after seeding, cells were fixed in ice-cold methanol and stained with Crystal Violet blue. […] were counted and survival fraction was calculated as number of colonies divided by the number of plated cells (plating efficiency) of treated divided by the plating efficiency of control.
# The effects of the following treatments were assessed on the 451Lu melanoma cell line (V600E oncogenic mutation in BRAF): (1) MRx0029; (2) Vemurafenib (VEMU) in YFCA+ medium; (3) VEMU and MRx0029; (4) Azacytidine-C (Aza-c) in YFCA+ medium; (5) Aza-c and MRx0029; (6) VEMU, Aza-c and MRx0029.
# colon = assay: Intestinal permeability assay (Ussing chambers); assay type: in vivo; conditions: colon of mice fed with MRx0029
# Procedure: Animals were allowed to habituate to their holding room for one week after arrival into the animal unit. They receive oral gavage (200 μL dose) of live biotherapeutics at a dose of 1×10^9 CFU for 6 consecutive days between 15:00 and 17:00. On day 7, the animals are decapitated, and tissues are harvested for experimentation. Animals were sacrificed in a random fashion regarding treatment and testing condition; sampling occurred between 9.00 a.m. and 2:30 p.m. Trunk blood was collected in potassium EDTA (Ethylene Diamine Tetra Acetic Acid) tubes and spun for 15 min at 4000 g. Plasma was isolated and stored at −80° C. for further analysis. The brain was quickly excised, dissected and each brain region was snap-frozen on dry ice and stored at −80° C. for further analysis. Spleen was removed, collected in 5 mL RPMI media (with L-glutamine and sodium bicarbonate, R8758 Sigma+10% FBS (F7524, Sigma)+1% Pen/Strep (P4333, Sigma)) and processed immediately after culls for ex-vivo immune stimulation. Intestinal tissue (2 3 cm segments of ileum and colon closest to the caecum were excised, and the furthest 1 cm 2 cm of tissue from the caecum were used) were mounted into the Ussing chambers for intestinal permeability assay. The caecum was removed, weighted and stored at −80° C. for SCFAs analysis.
substance,measurement,setting,value
Megasphaera massiliensis MRx0029,levels of histone deacetylase activity,histone deacetylase,able reduce the levels of histone deacetylase activity
same,ERK signalling,[1],inhibiting ERK signalling
same,IL-8 secretion,IL-8,Increases IL-8 Secretion
same,clonogenic survival,451Lu melanoma cell line,decreased clonogenic survival
same,permeability function in the colon,colon,decrease the permeability function
